Laboratory results from publication PMC6576746, “Rational discovery of dual-indication multi-target PDE/Kinase inhibitor for precision anti-cancer therapy using structural systems pharmacology” (PLoS Computational Biology, 2019).

Columns and labels:
Assay in all cases: biochemical
Parameters in all cases: DiscoverX KinomeScan competition binding assay across human kinases; per cent of control at 10 and 100 uM
[1] = target: BRSK1 (Homo sapiens, UniProt Q8TDC3); conditions: competition binding, % of control; read-out: Percent Control (100 uM Levosimendan)
Outline: (§1)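 KinomeScan competition binding was run across a human kinase panel at 10 μM and 100 μM levosimendan. Results are %control = (test − positive control)/(negative control − positive control) × 100.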

[2] = target: T1, CAMK1B (Homo sapiens, UniProt Q6P2M8); conditions: competition binding, % of control; read-out: Percent Control (100 uM Levosimendan)
T1 construct: gene PNCK
Outline: as §1

[3] = target: CSNK1G2 (Homo sapiens, UniProt P78368); conditions: competition binding, % of control
Outline: as §1

[4] = target: FLT1 (Homo sapiens, UniProt P17948); conditions: competition binding, % of control
Outline: as §1

[5] = target: T2, JAK1(JH2domain-pseudokinase) (Homo sapiens, UniProt P23458); conditions: competition binding, % of control
T2 construct: JH2domain-pseudokinase
Outline: as §1

[6] = target: T3, JAK3(JH1domain-catalytic) (Homo sapiens, UniProt P52333); conditions: competition binding, % of control; read-out: Percent Control (100 uM Levosimendan)
T3 construct: JH1domain-catalytic
Outline: as §1

[7] = target: T4, MST3 (Homo sapiens, UniProt Q9Y6E0); conditions: competition binding, % of control; read-out: Percent Control (100 uM Levosimendan)
T4 construct: gene STK24
Outline: as §1

[8] = target: NEK5 (Homo sapiens, UniProt Q6P3R8); conditions: competition binding, % of control; read-out: Percent Control (100 uM Levosimendan)
Outline: as §1

[9] = target: PIKFYVE (Homo sapiens, UniProt Q9Y2I7); conditions: competition binding, % of control; read-out: Percent Control (100 uM Levosimendan)
Outline: as §1

[10] = target: PRKG1 (Homo sapiens, UniProt Q13976); conditions: competition binding, % of control; read-out: Percent Control (100 uM Levosimendan)
Outline: as §1

[11] = target: RAF1 (Homo sapiens, UniProt P04049); conditions: competition binding, % of control; read-out: Percent Control (100 uM Levosimendan)
Outline: as §1

[12] = target: RET(M918T) (Homo sapiens, UniProt P07949, M918T); conditions: competition binding, % of control; read-out: Percent Control (100 uM Levosimendan)
Outline: as §1

[13] = target: RET(V804L) (Homo sapiens, UniProt P07949, V804L); conditions: competition binding, % of control; read-out: Percent Control (100 uM Levosimendan)
Outline: as §1

[14] = target: T5, SIK (Homo sapiens, UniProt P57059); conditions: competition binding, % of control; read-out: Percent Control (100 uM Levosimendan)
T5 construct: gene SIK1
Outline: as §1

[15] = target: STK36 (Homo sapiens, UniProt Q9NRP7); conditions: competition binding, % of control
Outline: as §1

[16] = target: TNNI3K (Homo sapiens, UniProt Q59H18); conditions: competition binding, % of control; read-out: Percent Control (100 uM Levosimendan)
Outline: as §1

[17] = target: TTK (Homo sapiens, UniProt P33981); conditions: competition binding, % of control; read-out: Percent Control (100 uM Levosimendan)
Outline: as §1

[18] = target: WEE2 (Homo sapiens, UniProt P0C1S8); conditions: competition binding, % of control; read-out: Percent Control (100 uM Levosimendan)
Outline: as §1

[19] = target: T6, YSK1 (Homo sapiens, UniProt O00506); conditions: competition binding, % of control; read-out: Percent Control (100 uM Levosimendan)
T6 construct: gene STK25
Outline: as §1

[20] = read-out: Percent Control (10 uM Levosimendan)
[21] = read-out: Percent Control (100 uM Levosimendan)

Sequence of CSNK1G2 (P78368 whole entry): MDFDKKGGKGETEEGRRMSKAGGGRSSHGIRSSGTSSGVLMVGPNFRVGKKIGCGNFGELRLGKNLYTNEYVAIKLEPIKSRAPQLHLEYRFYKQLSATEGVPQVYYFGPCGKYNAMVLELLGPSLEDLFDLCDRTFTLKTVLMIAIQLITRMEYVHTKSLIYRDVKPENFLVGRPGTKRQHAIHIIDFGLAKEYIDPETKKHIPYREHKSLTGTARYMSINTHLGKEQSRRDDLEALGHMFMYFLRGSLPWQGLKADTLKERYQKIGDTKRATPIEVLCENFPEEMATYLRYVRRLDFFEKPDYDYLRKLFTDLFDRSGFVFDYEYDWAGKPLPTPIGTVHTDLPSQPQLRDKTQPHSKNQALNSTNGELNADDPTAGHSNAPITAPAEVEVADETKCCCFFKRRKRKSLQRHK
Sequence of FLT1 (P17948 whole entry): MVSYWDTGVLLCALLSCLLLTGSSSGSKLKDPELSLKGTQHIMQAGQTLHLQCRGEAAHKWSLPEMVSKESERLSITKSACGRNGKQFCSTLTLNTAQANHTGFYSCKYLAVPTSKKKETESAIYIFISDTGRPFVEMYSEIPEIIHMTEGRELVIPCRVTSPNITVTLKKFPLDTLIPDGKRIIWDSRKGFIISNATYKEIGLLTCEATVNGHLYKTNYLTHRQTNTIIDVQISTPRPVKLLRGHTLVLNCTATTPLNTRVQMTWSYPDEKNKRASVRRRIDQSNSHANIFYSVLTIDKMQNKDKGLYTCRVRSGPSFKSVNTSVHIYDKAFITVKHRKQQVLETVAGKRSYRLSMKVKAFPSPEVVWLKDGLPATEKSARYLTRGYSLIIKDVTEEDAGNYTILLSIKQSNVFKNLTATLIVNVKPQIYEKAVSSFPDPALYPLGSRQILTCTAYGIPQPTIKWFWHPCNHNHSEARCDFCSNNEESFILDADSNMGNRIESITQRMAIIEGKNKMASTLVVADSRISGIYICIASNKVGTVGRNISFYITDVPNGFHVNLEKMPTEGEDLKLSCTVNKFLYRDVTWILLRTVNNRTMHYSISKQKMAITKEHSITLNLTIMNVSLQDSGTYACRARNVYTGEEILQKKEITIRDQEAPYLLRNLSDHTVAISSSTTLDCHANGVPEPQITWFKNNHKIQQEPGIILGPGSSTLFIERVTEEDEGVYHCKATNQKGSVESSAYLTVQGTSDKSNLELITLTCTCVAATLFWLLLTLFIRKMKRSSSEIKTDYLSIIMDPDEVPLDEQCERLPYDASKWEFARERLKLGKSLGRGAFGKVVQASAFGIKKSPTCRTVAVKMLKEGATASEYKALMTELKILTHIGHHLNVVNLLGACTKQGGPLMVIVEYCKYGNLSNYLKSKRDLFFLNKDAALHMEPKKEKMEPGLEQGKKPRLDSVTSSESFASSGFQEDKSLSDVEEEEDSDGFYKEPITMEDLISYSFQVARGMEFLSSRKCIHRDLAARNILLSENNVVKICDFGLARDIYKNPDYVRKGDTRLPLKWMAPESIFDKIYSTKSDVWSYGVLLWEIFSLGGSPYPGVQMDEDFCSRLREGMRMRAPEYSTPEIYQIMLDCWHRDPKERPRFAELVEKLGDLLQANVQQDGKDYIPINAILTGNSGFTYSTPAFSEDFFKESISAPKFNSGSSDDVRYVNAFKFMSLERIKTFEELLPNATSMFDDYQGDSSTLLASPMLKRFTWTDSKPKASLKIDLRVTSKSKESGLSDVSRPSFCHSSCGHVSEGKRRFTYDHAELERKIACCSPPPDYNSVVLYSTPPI
T2 sequence (P23458 whole entry): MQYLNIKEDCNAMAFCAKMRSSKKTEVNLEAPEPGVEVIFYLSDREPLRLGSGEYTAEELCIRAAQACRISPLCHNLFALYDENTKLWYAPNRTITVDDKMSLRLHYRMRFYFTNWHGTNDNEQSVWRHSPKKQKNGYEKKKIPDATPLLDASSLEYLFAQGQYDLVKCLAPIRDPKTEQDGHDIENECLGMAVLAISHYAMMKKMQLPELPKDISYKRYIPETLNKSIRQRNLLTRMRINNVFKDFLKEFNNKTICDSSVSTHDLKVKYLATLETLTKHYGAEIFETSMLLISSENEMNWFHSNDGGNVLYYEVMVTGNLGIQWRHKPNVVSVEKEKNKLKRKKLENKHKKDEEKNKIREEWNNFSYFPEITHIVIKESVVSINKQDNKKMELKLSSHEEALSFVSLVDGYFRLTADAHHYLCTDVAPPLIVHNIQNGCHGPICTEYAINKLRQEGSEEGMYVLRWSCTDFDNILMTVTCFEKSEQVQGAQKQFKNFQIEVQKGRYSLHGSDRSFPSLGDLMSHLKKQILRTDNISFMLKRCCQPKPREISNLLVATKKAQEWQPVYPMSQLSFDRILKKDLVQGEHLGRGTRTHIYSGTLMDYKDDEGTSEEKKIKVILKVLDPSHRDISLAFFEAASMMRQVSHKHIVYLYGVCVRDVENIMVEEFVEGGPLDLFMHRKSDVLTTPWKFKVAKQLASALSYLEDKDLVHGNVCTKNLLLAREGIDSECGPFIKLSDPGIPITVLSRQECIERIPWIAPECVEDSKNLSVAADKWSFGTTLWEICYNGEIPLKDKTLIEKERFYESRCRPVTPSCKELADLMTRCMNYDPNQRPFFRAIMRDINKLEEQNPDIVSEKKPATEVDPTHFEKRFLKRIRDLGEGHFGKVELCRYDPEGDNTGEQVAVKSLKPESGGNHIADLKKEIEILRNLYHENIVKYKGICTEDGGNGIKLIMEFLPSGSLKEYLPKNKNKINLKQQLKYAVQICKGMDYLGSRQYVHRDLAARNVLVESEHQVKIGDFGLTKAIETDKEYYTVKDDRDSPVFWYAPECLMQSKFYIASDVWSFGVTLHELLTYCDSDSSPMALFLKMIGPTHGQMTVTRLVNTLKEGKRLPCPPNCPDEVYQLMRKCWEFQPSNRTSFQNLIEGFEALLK
Sequence of STK36 (Q9NRP7 whole entry): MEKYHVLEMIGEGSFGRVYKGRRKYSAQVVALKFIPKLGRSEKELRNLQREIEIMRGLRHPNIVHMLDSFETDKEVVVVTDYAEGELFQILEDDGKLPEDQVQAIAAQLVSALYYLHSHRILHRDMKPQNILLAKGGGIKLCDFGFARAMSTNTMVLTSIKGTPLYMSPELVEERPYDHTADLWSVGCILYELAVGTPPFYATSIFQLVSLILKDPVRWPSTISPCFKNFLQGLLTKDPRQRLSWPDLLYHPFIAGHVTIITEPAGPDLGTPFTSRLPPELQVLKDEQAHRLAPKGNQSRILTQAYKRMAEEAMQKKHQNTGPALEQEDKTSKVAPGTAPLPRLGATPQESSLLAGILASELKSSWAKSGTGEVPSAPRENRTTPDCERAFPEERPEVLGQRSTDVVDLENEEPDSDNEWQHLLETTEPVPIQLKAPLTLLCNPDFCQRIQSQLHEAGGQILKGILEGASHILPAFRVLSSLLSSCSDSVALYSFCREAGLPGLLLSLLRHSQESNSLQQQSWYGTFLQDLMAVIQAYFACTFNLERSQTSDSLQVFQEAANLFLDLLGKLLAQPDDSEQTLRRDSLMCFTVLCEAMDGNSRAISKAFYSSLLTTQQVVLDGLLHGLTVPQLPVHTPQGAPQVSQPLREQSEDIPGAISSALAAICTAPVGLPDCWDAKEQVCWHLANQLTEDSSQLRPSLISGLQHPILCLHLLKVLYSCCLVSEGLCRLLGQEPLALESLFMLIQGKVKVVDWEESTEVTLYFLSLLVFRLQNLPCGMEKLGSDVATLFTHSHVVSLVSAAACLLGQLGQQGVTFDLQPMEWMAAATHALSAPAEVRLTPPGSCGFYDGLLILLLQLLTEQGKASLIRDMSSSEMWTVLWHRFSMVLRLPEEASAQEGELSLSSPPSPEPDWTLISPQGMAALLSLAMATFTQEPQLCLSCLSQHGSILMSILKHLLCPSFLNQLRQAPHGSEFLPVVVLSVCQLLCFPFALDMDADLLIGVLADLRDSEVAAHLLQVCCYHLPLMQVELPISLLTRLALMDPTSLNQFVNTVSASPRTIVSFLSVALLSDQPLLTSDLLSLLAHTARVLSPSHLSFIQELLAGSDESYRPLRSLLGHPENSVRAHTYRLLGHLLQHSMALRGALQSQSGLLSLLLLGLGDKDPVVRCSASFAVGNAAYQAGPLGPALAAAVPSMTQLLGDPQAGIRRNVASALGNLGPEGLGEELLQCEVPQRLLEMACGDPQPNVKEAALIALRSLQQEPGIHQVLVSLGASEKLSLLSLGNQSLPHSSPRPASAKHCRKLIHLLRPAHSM
T1 sequence (Q6P2M8 whole entry): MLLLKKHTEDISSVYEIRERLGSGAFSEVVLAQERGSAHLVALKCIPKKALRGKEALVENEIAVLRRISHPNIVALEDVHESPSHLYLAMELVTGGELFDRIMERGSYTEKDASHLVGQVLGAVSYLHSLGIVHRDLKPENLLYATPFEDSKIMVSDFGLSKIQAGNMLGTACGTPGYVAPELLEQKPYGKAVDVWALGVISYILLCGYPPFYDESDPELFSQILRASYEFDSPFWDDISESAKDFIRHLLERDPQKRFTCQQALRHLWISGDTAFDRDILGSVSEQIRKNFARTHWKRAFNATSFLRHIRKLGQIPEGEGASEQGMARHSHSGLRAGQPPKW
T4 sequence (Q9Y6E0 whole entry): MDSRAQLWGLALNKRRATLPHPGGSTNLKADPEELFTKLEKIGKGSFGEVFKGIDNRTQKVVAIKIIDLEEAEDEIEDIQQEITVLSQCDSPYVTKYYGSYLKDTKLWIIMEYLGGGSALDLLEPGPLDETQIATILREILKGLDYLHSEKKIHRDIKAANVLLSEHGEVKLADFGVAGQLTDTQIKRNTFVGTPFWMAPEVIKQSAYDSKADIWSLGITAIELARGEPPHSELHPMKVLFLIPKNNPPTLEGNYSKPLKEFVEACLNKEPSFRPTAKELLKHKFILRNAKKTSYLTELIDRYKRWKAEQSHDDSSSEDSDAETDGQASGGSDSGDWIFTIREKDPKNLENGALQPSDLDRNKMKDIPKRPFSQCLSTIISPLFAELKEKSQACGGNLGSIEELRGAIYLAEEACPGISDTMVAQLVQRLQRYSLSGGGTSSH

SMILES: C[C@@H]1CC(=O)NN=C1c1ccc(NN=C(C#N)C#N)cc1 [levosimendan]
- remaining binding at 100 µM [1]: 100%
- remaining binding at 100 µM [2]: 100%
- remaining binding at 10 µM [3, 20]: 62%
- remaining binding at 100 µM [3, 21]: 4.8%
- remaining binding at 10 µM [4, 20]: 98%
- remaining binding at 100 µM [4, 21]: 44%
- remaining binding at 10 µM [5, 20]: 30%
- remaining binding at 100 µM [5, 21]: 7.2%
- remaining binding at 100 µM [6]: 75%
- remaining binding at 100 µM [7]: 96%
- remaining binding at 100 µM [8]: 86%
- remaining binding at 100 µM [9]: 57%
- remaining binding at 100 µM [10]: 64%
- remaining binding at 100 µM [11]: 77%
- remaining binding at 100 µM [12]: 90%
- remaining binding at 100 µM [13]: 92%
- remaining binding at 100 µM [14]: 59%
- remaining binding at 10 µM [15, 20]: 98%
- remaining binding at 100 µM [15, 21]: 50%
- remaining binding at 100 µM [16]: 95%
- remaining binding at 100 µM [17]: 86%
- remaining binding at 100 µM [18]: 76%
- remaining binding at 100 µM [19]: 100%
